US20090099218A1, “SYNTHESIS OF NOVEL TUBULIN POLYMERIZATION INHIBITORS: BENZOYLPHENYLUREA (BPU) SULFUR ANALOGS” (priority 2007, published 2009)
pIC50: −log10 of the molar value.

Assays:
Panc1 = test: MTT growth inhibition, pancreatic cell line Panc1; type: cell-based; conditions: for pIC50: Homo sapiens, PANC-1, MTT assay, 96 h treatment, average of three independent experiments
Description: (§1) Eight of these analogs 6d, 6h, 6n, 6g, 7b, 7d, 8g, and 8h were tested for their cytotoxicity in seven pancreatic cell lines ASPC1, Panc1, Panc203, Panc430, Pane 1005, MiaPaca2, and HS766T using MTT assay. Cells were trypsinized, seeded at 5×10^3 cells/well in 96-well plate and allowed to grow for 24 hours before the treatment with exponential increasing concentrations of drugs in the presence of 10% FBS. After a 96-hours period of treatment, 20 μl of MTT solution (5 mg/ml in PBS) were added to each well, and the plates were then incubated for 3 hours at 37° C. Medium was then replaced with 100 μl of DMSO per well. Plates were shaken and the optical density was measured at 570 nm using a multiwell plate reader (Bio-Rad, Model 550, Bio-Rad Inc., Hercules, Calif.). Each experiment was performed in triplicate for each drug concentration and was carried out independently at least 3 times. The IC50 value was defined as the concentration needed for a 50% reduction in the absorbance calculated based on the survival curves. Response to drug treatment was assessed by standardizing treatment groups to untreated controls. Compounds activity was compared with compound 1.
(§2) Table 2 (Growth Inhibition of Pancreatic Cancer Cell Lines by BPU and BPTU Analogues (IC50) a) compares the cytotoxicity of a series of new derivatives against a panel of seven pancreatic cancer cell lines, as determined by MTT assay. See, Mosmann, T., J. Immunol. Methods 65:55-63 (1983).

[1] = system: seven pancreatic cell lines; test: MTT cytotoxicity, panel of seven pancreatic cancer cell lines; type: cell-based; conditions: seven pancreatic cell lines
Description: as §1, §2

Panc203 = test: MTT growth inhibition, pancreatic cell line Panc203; type: cell-based; conditions: Panc203; for pIC50: Homo sapiens, MTT assay, 96 h treatment, average of three independent experiments
Description: as §1, §2

Miapaca2 = test: MTT growth inhibition, pancreatic cell line Miapaca2; type: cell-based; conditions: for pIC50: Homo sapiens, MIA PaCa-2, MTT assay, 96 h treatment, average of three independent experiments
Description: as §1, §2

Panc430 = test: MTT growth inhibition, pancreatic cell line Panc430; type: cell-based; conditions: for pIC50: MTT assay, 96 h treatment, average of three independent experiments
Description: as §1, §2

HS766 = test: MTT growth inhibition, pancreatic cell line HS766; type: cell-based; conditions: Homo sapiens, Hs 766; MTT assay, 96 h treatment; average of three independent experiments
Description: as §1, §2

[2] = system: prostate cancer cell lines CWR22R, LAPC-4 and LnCap; test: MTT growth inhibition, prostate cancer cell line panel; type: cell-based, human; conditions: for potency relative to compound 1, prostate cell lines (preliminary screening): CWR22R, LAPC-4, LnCap
Description: (§3) This MTT assay was carried using human prostate cancer cell lines CWR22R, LAPC-4 and LnCap using Promega cell titer 96 nonradioactive cell proliferation kits. Cells were trypsinized and centrifuged at 1000 rpm for 5 minutes and the supernatant was aspirated. Cells were resuspended with HBSS to a concentration of 10^6/ml. Cell suspension was diluted in serum containing medium to plate 2000 cells/well/0.2 ml. Cell suspension was transferred to sterile solution basin. Cells were plated using multichannel pipette set at 200 μl and incubated overnight for attachment. One plate was prepared for day 0 MTT assay as follows: 100 μl of media was removed from each well using multichannel pipette and 15 μl of MTT reagent was added. Plates were incubated at 37° C. for 4 hrs. […] of STOP solution was added to each well and incubated at room temperature for 1 hour. Absorbance was measured at 570 and 650 nm on plate reader. All the media from the remaining plates were carefully removed and the cells were treated with the media containing drug. MTT assays were done on days 0, 3, 5 and 7. In the preliminary screening […] BPU sulfur analogs 6l, 6h, 6n, 7d and 8h were screened and their activity was compared with compound 1.

[3] = In vivo dose-finding study; conditions: for toxicity: 20 mg/kg and 30 mg/kg twice per week i.p., 4 weeks, six mice; for remaining animals that lost >15% of their weight: 50 mg/kg thrice per week i.p.; for mice that died in the 3rd week: mouse, in vivo
Description: Both compounds were explored by the i.p. route in cohorts of six mice each, with a duration of treatment of 4 weeks. […] Therefore, 50 mg/kg twice per week was explored. […] Therefore, the dose was escalated to 50 mg/kg thrice per week. In the 6n and 7d groups, respectively, two and one of the mice died in the 3rd week, and three of four and four of five of the remaining animals lost >15% of their weight. Thus, for 28-day efficacy studies following an i.p. route, we selected 50 mg/kg twice a week for both compounds.

LAPC-4 = test: MTT growth inhibition, prostate cancer cell line LAPC-4; type: cell-based, human; conditions: for pIC50: Homo sapiens, LAPC4, MTT assay, average of three independent experiments
Description: as §3
Compounds with significant inhibitory activity in pancreatic cancer cells were further evaluated against prostate cancer cell lines in the MTT assay, (Mosmann, T., J. Immunol. Methods 65:55-63 (1983)) and the results were compared to those for compound 1 (Table 3).

tubulin = test: Inhibition of tubulin polymerization; type: biochemical; conditions: for pIC50: Tubulin was at 10 μM, read-out: tubulin IC50 ± SD (inhibition of tubulin polymerization)
Description: Briefly, tubulin polymerization was followed turbidimetrically at 350 nm in Beckman model DU7400 and DU7500 recording spectrophotometers equipped with electronic temperature controllers. […] Samples were pre-incubated for 15 min at 30° C. and chilled on ice. GTP (final concentration, 0.4 mmol/L) was added to each reaction mixture, and these were placed in cuvettes held at 0° C. Baselines were established, the temperature was raised to 30° C.

ASPC1 = test: MTT growth inhibition, pancreatic cell line ASPC1; type: cell-based; conditions: Homo sapiens, ASPC1; MTT assay, 96 h treatment; average of three independent experiments
Description: as §1, §2

Row | SMILES | pIC50 (Panc1) | potency relative to compound 1, pancreatic cell lines [1] [time] | pIC50 (Panc203) | pIC50 (Miapaca2) | pIC50 (Panc430) | pIC50 (HS766) | potency relative to compound 1, prostate cell lines (preliminary screening) [2] [times] | toxicity [3] | remaining animals that lost >15% of their weight [3] | mice that died in the 3rd week [3] | pIC50 (LAPC-4) | pIC50 (tubulin) | pIC50 (ASPC1) | further results
1 | Nc1ccccc1C(=O)NC(=O)Nc1ccc(Sc2ncc(Br)cn2)cc1 [Compound 7d] | 7.05 | 20 | 7.07 | 7.02 | 6.70 | 6.15 | 20 | not associated with noticeable toxicity | four of five | one | 7.00 | < 4.40 | 6.35 | increase in activity compared to 7c (Panc1; Panc1): 39 fold; increase in activity compared to 7c (Panc203): > 117 fold; increase in activity compared to 7c (Miapaca2; Miapaca2): 9 fold; increase in activity compared to 7c (Panc430; Panc430): > 50 fold; increase in activity compared to 7c (LAPC-4; LAPC-4): 7 fold
2 | O=C(NC(=O)c1ccccc1[N+](=O)[O-])Nc1ccc(Sc2ncc(Br)cn2)cc1 [Compound 6n, 1-[4-(5-Bromopyrimidin-2-ylsulfanyl)phenyl]-3-(2-nitrobenzoyl)-urea] | 7.07 | 20 | 6.15 | 7.07 | 7.05 | 7.06 | 20 | not associated with noticeable toxicity | three of four | two | 7.30 | 5.68 | 6.00 | increase in potency over 6m (Panc1; Panc1): 8 fold; increase in potency over 6m (Panc203): 14 fold; increase in potency over 6m (Miapaca2; Mia-paca2): 8 fold; increase in potency over 6m (Panc430; Panc430): 111 fold; pIC50 ([2]; Homo sapiens, all prostate cell lines, read-out: IC50 against all prostate cell lines): 7.30; mice with a weight loss of 15% by the 4th week ([3]; 50 mg/kg twice per week i.p.): One of six; potency as inhibitor of tubulin assembly relative to 7d (tubulin): twice as potent
